Results from US20240165132A1, “METHODS AND MATERIALS FOR TREATING CANCER” (Mayo Foundation for Medical Education and Research, priority 2021, published 2024).

System: GBM39
Test: Radiation dose and time-point dependency of Bcl-XL inhibitor sensitivity
Type: cell-based, human
Experimental: F our days after radiation, cells were plated in black wall 96-well plates. Overnight and drugs added the next day. Seven days after drug treatment, cell viability was measured by CellTiter-Glo. To determine the impact of varying duration of drug exposure, 15 Gy radiated cells were plated 7 days after radiation, where the minimum drug exposure time was 1 hour and the maximum 96 hours. Cells were plated in black-wall 96-well plates, and drugs added the next day as described above. At the designated time-point, drug-containing media was removed and replaced with drug-free media for the remainder of the experiment (one wash with media, during a replacement). The cell viability assay was performed at the end of 96 hours. The previous experiments maintained radiated cells for 2-4 weeks after radiation prior to senolytic drug testing. While the senescence process often takes weeks, the apoptotic pathways regulated by Bcl-2 family members are dynamically regulated within days following DNA damage. As such, GBM39 was used to ask if a minimal period of time after radiation must elapse following radiation prior to onset of Bcl-XL sensitivity. […] Analysis was performed at the end of the 4 days drug exposure. […] Whether a minimal radiation dose was required to induce susceptibility cell death with Bcl-XL inhibition was investigated. […] For most cell lines, radiation doses of 10-20 Gy yielded similar results (FIG. 6 and Table 3). The duration of continuous Bcl-XL inhibitor exposure required to observe senolytic effect was investigated. To accomplish this, GBM39 was exposed to drug for varying durations from 0-96 hours, with drug then washed off and cells maintained in normal growth media thereafter until time of analysis.

Cc1c(-c2ccc(N3CCc4cccc(C(=O)Nc5nc6ccccc6s5)c4C3)nc2C(=O)O)cnn1CC12CC3CC(CC(C3)C1)C2 [A1331852]
Cell ablation by start of treatment after radiation (GBM39, 4 days drug, start 5 or 9 days vs 1 day after radiation): more complete cell ablation was observed with a leftward shift of the dose response curve | Radiation dose that promoted sensitivity (GBM39, increasing efficacy up to 15 Gy): ≥ 4 Gy
